Emax and EC50 data for 4 compounds are collected here from ChEMBL document CHEMBL5380878, “A beginner's guide to current synthetic linker strategies towards VHL-recruiting PROTACs” (Bioorg Med Chem, 2023).

For orientation: Emax means the size of the effect at its maximum, as opposed to the concentration needed. A word on the EC50: it is the concentration that produces a half-maximal response.

Where only a bound is given, the exact number is not on record here.

Type in all cases: cell-based
Test [1] deals with von Hippel-Lindau disease tumor suppressor/Leucine-rich repeat serine/threonine-protein kinase 2 (Homo sapiens) (UniProt Q5S007+P40337). Nature of the test: PROTAC activity at VHL/LRRK2 in human MV4-11 cells assessed as LRRK2 degradation by measuring maximal efficacy by Western blot analysis relative to control.
The target of test [2] is von Hippel-Lindau disease tumor suppressor/Leucine-rich repeat serine/threonine-protein kinase 2 (Homo sapiens, UniProt P40337+Q5S007). Nature of the test: PROTAC activity at VHL/LRRK2 in human MV4-11 cells assessed as induction of LRRK2 degradation by Western blot analysis.
Test [3] addresses T1, von Hippel-Lindau disease tumor suppressor/Receptor-type tyrosine-protein kinase FLT3 (Homo sapiens, UniProt P36888+P40337). Nature of the test: PROTAC activity at VHL/FLT3 in human MV4-11 cells assessed as induction of FLT3 degradation by Western blot analysis.
Target sequence in this assay (P36888 whole entry): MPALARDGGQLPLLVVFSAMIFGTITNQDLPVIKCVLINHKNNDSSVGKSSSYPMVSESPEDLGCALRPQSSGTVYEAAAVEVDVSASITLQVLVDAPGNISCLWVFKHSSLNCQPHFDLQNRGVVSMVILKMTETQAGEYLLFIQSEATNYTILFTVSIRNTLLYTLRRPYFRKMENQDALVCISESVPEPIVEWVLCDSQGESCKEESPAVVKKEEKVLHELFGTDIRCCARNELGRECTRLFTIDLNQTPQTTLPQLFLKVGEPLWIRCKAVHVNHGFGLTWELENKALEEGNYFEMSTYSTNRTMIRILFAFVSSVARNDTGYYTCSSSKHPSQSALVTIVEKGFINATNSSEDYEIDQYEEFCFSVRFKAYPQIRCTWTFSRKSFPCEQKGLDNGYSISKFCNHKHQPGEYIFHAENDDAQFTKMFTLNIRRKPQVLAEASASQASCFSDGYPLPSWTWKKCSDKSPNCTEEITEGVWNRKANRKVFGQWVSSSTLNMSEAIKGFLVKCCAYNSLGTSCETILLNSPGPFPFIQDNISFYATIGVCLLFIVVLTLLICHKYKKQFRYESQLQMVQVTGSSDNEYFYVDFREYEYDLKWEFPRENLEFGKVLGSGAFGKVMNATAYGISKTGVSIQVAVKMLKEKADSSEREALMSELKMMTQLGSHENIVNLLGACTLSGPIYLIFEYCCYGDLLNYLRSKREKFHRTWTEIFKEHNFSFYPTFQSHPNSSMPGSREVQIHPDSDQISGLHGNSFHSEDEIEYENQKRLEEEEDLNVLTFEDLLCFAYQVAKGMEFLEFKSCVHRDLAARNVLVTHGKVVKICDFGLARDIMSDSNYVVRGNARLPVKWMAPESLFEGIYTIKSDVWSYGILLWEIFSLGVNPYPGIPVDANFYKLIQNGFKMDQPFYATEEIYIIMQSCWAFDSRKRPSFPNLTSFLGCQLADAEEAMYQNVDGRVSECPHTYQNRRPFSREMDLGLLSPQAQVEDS
Target sequence in this assay (P40337 whole entry): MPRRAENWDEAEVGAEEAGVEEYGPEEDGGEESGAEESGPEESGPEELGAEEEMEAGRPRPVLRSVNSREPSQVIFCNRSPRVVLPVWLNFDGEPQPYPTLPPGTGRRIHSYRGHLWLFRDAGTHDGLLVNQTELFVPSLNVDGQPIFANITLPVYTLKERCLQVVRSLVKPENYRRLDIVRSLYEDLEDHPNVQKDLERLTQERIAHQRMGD
Test [4] addresses T1, von Hippel-Lindau disease tumor suppressor/Receptor-type tyrosine-protein kinase FLT3. The test can be described thus: PROTAC activity at VHL/FLT3 in human MV4-11 cells assessed as FLT3 degradation by measuring maximal efficacy by Western blot analysis relative to control. A general note: In western blotting, separated proteins are transferred to a membrane and probed.
For test [5], the target named is von Hippel-Lindau disease tumor suppressor/Cyclin-dependent kinase 6 (Homo sapiens) (UniProt Q00534+P40337). Nature of the test: PROTAC activity at VHL/CDK6 in human MV4-11 cells assessed as CDK6 degradation by measuring maximal efficacy by Western blot analysis.
Test [6] concerns the target von Hippel-Lindau disease tumor suppressor/Cyclin-dependent kinase 6 (Homo sapiens, UniProt P40337+Q00534). Nature of the test: PROTAC activity at VHL/CDK6 in human MV4-11 cells assessed as induction of CDK6 degradation by Western blot analysis.
Test [7] concerns the target von Hippel-Lindau disease tumor suppressor/Bromodomain-containing protein 4 (Homo sapiens, UniProt O60885+P40337). The test can be described thus: PROTAC activity in VHL/BRD4 in human MV4-11 cells assessed as induction of BRD4 degradation by Western blot analysis.

von Hippel-Lindau disease tumor suppressor/Cyclin-dependent kinase 6, sequence (Q00534 whole entry): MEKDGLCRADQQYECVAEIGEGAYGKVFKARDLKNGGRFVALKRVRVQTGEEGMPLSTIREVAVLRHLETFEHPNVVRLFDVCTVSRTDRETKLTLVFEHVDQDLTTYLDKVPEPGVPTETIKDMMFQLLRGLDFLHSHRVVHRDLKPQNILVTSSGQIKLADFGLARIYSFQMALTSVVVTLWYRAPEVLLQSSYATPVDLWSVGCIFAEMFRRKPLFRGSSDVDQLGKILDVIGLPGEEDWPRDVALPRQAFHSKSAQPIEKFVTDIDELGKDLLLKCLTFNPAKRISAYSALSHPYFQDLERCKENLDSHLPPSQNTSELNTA
von Hippel-Lindau disease tumor suppressor/Cyclin-dependent kinase 6, sequence (P40337 whole entry): as the sequence (P40337 whole entry) above
von Hippel-Lindau disease tumor suppressor/Leucine-rich repeat serine/threonine-protein kinase 2, sequence (Q5S007 whole entry): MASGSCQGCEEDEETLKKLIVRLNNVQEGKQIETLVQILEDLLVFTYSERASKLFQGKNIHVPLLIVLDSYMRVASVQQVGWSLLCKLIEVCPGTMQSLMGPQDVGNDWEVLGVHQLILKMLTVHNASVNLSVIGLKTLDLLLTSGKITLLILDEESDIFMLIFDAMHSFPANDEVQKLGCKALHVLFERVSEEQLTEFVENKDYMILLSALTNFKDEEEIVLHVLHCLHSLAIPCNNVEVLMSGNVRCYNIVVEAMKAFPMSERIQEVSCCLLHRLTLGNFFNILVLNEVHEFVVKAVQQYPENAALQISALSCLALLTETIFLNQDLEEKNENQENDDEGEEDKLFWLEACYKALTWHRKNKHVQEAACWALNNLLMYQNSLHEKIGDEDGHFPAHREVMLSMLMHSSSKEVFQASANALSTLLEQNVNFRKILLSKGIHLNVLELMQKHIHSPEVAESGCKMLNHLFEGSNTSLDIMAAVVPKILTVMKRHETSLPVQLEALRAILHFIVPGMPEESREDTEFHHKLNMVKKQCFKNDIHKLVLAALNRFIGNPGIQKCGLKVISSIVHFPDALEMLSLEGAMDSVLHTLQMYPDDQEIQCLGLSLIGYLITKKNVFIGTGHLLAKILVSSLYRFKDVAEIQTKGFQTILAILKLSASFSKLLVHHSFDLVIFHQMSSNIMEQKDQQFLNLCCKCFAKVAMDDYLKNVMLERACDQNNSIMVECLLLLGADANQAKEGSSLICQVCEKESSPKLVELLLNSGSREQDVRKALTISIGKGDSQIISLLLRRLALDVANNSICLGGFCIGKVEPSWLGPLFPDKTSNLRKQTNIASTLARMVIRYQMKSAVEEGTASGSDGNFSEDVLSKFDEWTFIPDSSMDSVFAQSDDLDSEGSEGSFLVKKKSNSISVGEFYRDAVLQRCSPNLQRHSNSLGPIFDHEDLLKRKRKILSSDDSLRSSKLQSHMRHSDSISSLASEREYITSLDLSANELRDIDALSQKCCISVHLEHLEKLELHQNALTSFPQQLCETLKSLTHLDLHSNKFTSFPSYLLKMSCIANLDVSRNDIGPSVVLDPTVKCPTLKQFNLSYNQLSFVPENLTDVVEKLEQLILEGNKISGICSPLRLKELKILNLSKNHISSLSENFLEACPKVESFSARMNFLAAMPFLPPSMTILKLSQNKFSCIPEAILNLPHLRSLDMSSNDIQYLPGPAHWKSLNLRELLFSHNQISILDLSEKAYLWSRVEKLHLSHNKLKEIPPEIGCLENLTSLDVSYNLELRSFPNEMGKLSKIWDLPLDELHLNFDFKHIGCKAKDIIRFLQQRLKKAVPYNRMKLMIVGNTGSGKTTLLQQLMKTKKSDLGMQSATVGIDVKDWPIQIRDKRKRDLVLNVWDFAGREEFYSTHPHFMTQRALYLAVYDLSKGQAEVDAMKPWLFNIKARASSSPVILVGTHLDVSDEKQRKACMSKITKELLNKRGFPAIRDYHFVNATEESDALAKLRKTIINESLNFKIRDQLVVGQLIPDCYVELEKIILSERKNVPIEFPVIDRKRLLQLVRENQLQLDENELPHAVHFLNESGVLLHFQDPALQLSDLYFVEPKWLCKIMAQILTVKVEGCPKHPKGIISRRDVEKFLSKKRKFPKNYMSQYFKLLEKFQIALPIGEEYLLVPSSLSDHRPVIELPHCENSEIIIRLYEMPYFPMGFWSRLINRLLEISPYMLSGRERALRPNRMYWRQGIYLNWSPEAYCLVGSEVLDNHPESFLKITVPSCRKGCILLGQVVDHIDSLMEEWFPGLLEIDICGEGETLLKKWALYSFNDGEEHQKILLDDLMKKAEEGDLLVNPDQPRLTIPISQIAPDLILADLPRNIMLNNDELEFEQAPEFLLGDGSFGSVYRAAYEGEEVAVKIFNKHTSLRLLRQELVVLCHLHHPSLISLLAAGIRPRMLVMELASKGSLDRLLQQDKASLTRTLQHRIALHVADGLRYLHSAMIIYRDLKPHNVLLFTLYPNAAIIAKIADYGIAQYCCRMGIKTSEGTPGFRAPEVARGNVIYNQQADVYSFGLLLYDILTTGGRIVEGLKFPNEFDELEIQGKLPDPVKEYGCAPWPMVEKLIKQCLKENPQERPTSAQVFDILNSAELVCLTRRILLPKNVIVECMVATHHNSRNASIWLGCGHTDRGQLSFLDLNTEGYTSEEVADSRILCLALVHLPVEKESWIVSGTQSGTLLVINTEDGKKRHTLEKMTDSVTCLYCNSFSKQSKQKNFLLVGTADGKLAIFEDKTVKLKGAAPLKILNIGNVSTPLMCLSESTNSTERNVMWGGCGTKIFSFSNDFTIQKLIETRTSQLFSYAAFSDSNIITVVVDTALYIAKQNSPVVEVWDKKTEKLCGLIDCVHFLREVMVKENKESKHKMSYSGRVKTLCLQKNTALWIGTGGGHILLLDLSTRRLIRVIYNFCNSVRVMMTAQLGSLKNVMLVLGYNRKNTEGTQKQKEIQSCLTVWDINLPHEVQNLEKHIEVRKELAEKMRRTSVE
von Hippel-Lindau disease tumor suppressor/Leucine-rich repeat serine/threonine-protein kinase 2, sequence (P40337 whole entry): as the sequence (P40337 whole entry) above
von Hippel-Lindau disease tumor suppressor/Cyclin-dependent kinase 6 (Homo sapiens), sequence (P40337 whole entry, looked up): as the sequence (P40337 whole entry) above
von Hippel-Lindau disease tumor suppressor/Cyclin-dependent kinase 6 (Homo sapiens), sequence (Q00534 whole entry, looked up): as the sequence (Q00534 whole entry) above
von Hippel-Lindau disease tumor suppressor/Leucine-rich repeat serine/threonine-protein kinase 2 (Homo sapiens), sequence (P40337 whole entry, looked up): as the sequence (P40337 whole entry) above
von Hippel-Lindau disease tumor suppressor/Leucine-rich repeat serine/threonine-protein kinase 2 (Homo sapiens), sequence (Q5S007 whole entry, looked up): as the sequence (Q5S007 whole entry) above
von Hippel-Lindau disease tumor suppressor/Bromodomain-containing protein 4, sequence (P40337 whole entry, looked up, other chains not shown): as the sequence (P40337 whole entry) above

Take `CNc1nc(Nc2ccc(C(=O)N3CCN(C[C@H]4CC[C@H](CSC(C)(C)[C@H](NC(=O)C5(F)CC5)C(=O)N5C[C@H](O)C[C@H]5C(=O)NCc5ccc(-c6scnc6C)cc5)CC4)CC3)cc2OC)ncc1Cl`: the Emax in test [1] is over 82%. The EC50 in test [2] is 15 nM.
As to `Cc1ncsc1-c1ccc(CNC(=O)[C@@H]2C[C@@H](O)CN2C(=O)[C@@H](NC(=O)CCOCCOCCOc2ccc3c(c2)sc2nc(-c4ccc(NC(=O)Nc5cc(C(C)(C)C)on5)cc4)cn23)C(C)(C)C)cc1`, in test [3], the half-maximal effective concentration (EC50) was under 5 nM. In addition, the maximum response (Emax) in test [4] was found to be 90%.
With `CC(=O)c1c(C)c2cnc(Nc3ccc(N4CCN(CCOCCOCCOc5cc(-c6scnc6C)ccc5CNC(=O)[C@@H]5C[C@@H](O)CN5C(=O)[C@@H](NC(=O)C5(F)CC5)C(C)(C)C)CC4)cn3)nc2n(C2CCCC2)c1=O`, in test [5], the Emax was found to be 95%. Besides, the EC50 in test [6] came out at 5.1 nM.
Turning to `Cc1cc([C@H](C(=O)N2C[C@H](O)C[C@H]2C(=O)N[C@@H](C)c2ccc(-c3scnc3C#CCOCCOCCOCCOCCNC(=O)C[C@@H]3N=C(c4ccc(Cl)cc4)c4c(sc(C)c4C)-n4c(C)nnc43)cc2)C(C)C)on1`, the EC50 in test [7] is 16 nM.
